From patent US9878982B2, “Pyridine derivatives and anti-mycobacterial use thereof” (priority 2014, dated 2018) come the findings set out here.

SMILES strings stand for the structures. ≈ marks a conversion by molar mass, not a printed value. Where two headings read alike, the source gives them in different places.

For data set [1], the system named is Vero Cell. Nature of the data set: Vero cell cytotoxicity (IC50). The format is cell-based. The settings on record: African green monkey kidney cells; for IC50: Chlorocebus sabaeus, Vero.
The subject of data set [2] is M. tuberculosis H37R. Nature of the data set: microbe, parasite or virus in culture. The format is cell-based, Mycobacterium tuberculosis. Particulars: for MIC: Mycobacterium tuberculosis, H37R, read-out: M. tuberculosis H37R LORA (MIC).
Data set [3] relates to M. tuberculosis H37Rv. The data set is described as follows: In vitro efficacy test using the H37Rv strain, Microplate Alamar Blue Assay (MABA) MIC. Format: cell-based, Mycobacterium tuberculosis. The settings on record: for MIC: Mycobacterium tuberculosis, H37RV. In general terms: Alamar Blue is a resazurin reagent that responds to reducing activity.
For data set [4], the system named is Mycobacterium smegmatis strain ATCC19420. The data set is described as follows: In vitro efficacy test using Mycobacterium smegmatis strain ATCC19420 (MIC). The format is cell-based. Particulars: CA-MHB + 0.02% Tween 80, 30° C., read after 72 hours; for MIC: Mycolicibacterium smegmatis, ATCC19420, 72 h.
The test system of data set [5] is Hela. The data set is described as follows: Hela cell cytotoxicity (CC50). The settings on record: human cervical cancer cells; half of the toxic concentration.
For data set [6], the system named is Mycobacterium tuberculosis (ATCC35801). The data set is described as follows: In vivo efficacy in a mice model infected with M. tuberculosis by spray (lung bacteria load). The settings on record: female Balb/c mice, day 35, compared with the solvent treated group.
Data set [7] can be described thus: in vitro. The settings on record: human.
Data set [8] in a line: Hela cell cytotoxicity (CC50). The settings on record: human, HeLa cells (human cervical cancer cells), CC50_Hela, half of the toxic concentration.
Where [9] appears, read: aerobic, 7H9 medium, Alamar Blue, read-out: M. tuberculosis H37Rv MABA (MIC).
Setting [10] is: aerobic, 7H9 medium, Alamar Blue.

The term IC50 denotes the concentration that gives 50% inhibition. Compound `COc1ncc(C2CCCCC2)cc1C(c1ccccc1)C(O)(CCN(C)C)c1cccc2ccccc12` (stereo not shown) [Compound 103, 1-(5-cyclohexyl-2-methoxypyridin-3-yl)-4-(dimethylamino)-2-(naphthalen-1-yl)-1-phenylbutan-2-ol] gave a concentration for half-maximal inhibition (IC50) in data set [1] of 32.3 µg/mL (≈ 63.5 µM). Moreover, the MIC in data set [2] was found to be 1.48 µg/mL (≈ 2.91 µM); in data set [3] (setting [9]), 0.76 µg/mL. The “M. smegmatis ATCC19420 MIC” value in data set [4] turned out to be 0.125 µg/mL. In data set [5], this compound returned a CC50_Hela of 57.72 µg/mL (≈ 113 µM).

As for `COc1ncc(C2CCCC2)cc1C(c1ccccc1)C(O)(CCN(C)C)c1cccc2ccccc12` (stereo not shown) [Compound 64], in data set [1], the “Vero Cell (IC50)” value is greater than 50 µg/mL. The “M. tuberculosis H37R LORA (MIC)” value in data set [2] was found to be 3.06 µg/mL. Also, in data set [3] (setting [10]), the “M. tuberculosis H37Rv MABA (MIC)” value was determined as 2.33 µg/mL. For the same compound, the “M. smegmatis ATCC19420 MIC” value in data set [4] turned out to be 0.5 µg/mL. In addition, the CC50_Hela in data set [5] turned out to be 28.75 µg/mL (≈ 58.1 µM).

Turning to `CO[C@H]1/C=C/O[C@@]2(C)Oc3c(C)c(O)c4c(O)c(c(/C=N/N5CCN(C)CC5)c(O)c4c3C2=O)NC(=O)/C(C)=C\C=C\[C@H](C)[C@H](O)[C@@H](C)[C@@H](O)[C@@H](C)[C@H](OC(C)=O)[C@@H]1C` [rifampicin], the “reduction of the amount of the bacteria in the lungs” value in data set [6] (15 mg/kg by gavage once each working day for four weeks) was found to be 1.8 log.

`COc1nc2ccc(Br)cc2cc1[C@@H](c1ccccc1)[C@@](O)(CCN(C)C)c1cccc2ccccc12` [Bedaquiline, reference compound] had a half-maximal inhibitory concentration (IC50) in data set [1] greater than 32 µg/mL. For the same compound, the MIC in data set [2] is 0.2 µg/mL (≈ 0.36 µM); in data set [3] (setting [9]) it was 0.03 µg/mL; in data set [3] (wild-type H37Rv strain, two values per compound, read-out: MABA MIC vs. H37Rv), 0.06 µM. In data set [3] (wild-type H37Rv strain, two values per compound), the “MABA MIC vs. H37Rv” value was found to be 0.05 µM. In addition, in data set [6] (25 mg/kg by gavage once each working day for four weeks), the “reduction of the amount of the bacteria in the lungs” value is 5.2 log. The same compound returned a CC50 in data set [7] greater than 64 µg/mL.

With `COc1ncc(-c2csc(Br)c2)cc1C(c1ccccc1)C(O)(CCN(C)C)c1cccc2ccccc12` (stereo not shown) [Compound 275], the “Vero Cell (IC50)” value in data set [1] is greater than 32 µg/mL. Moreover, the “M. tuberculosis H37R LORA (MIC)” value in data set [2] is 0.67 µg/mL. Besides, the “M. tuberculosis H37Rv MABA (MIC)” value in data set [3] (setting [10]) was 0.41 µg/mL. In data set [4], the “M. smegmatis ATCC19420 MIC” value worked out at 0.125 µg/mL. In addition, the CC50_Hela in data set [5] is greater than 64 µg/mL.

Consider `COc1ncc(-c2ccccc2)cc1C(c1ccccc1)C(O)(CCN(C)C)c1cc(F)cc(F)c1` (stereo not shown) [Compound 35, 2-(3,5-difluorophenyl)-4-(dimethylamino)-1-(2-methoxy-5-phenylpyridin-3-yl)-1-phenylbutan-2-ol], for which, in data set [1], the IC50 was greater than 50 µg/mL. Further, the MIC in data set [2] is 0.37 µg/mL (≈ 0.757 µM); in data set [3] (setting [9]) it was 0.73 µg/mL; in data set [4], no more than 0.0625 µg/mL. The CC50 in data set [8] is 28.9 µg/mL (≈ 59 µM).

In data set [1], `COc1ncc(-c2cccc(C#N)c2)cc1C(c1ccccc1)C(O)(CCN(C)C)c1cccc2ccccc12` (stereo not shown) [Compound 153, 3-(5-(4-(dimethylamino)-2-hydroxyl-2-(naphthalen-1-yl)-1-phenylbutyl)-6-methoxypyridin-3-yl)-benzonitrile] came in with an IC50 greater than 32 µg/mL. Moreover, the values for the MIC in data set [2], in data set [3] (setting [9]) and in data set [4] were 2.54 µg/mL (≈ 4.81 µM), 0.96 µg/mL and 0.25 µg/mL, respectively. Besides, the CC50 in data set [8] is greater than 64 µg/mL.

As to `COc1nc(OC)c(C(c2ccccc2)C(O)(CCN(C)C)c2cccc3ccccc23)cc1-c1ccc(Cl)cc1` (single isomer, unassigned) [Compound 401, 1-(5-(4-chlorophenyl)-2,6-dimethoxypyridin-3-yl)-4-(dimethylamino)-2-(naphthalen-1-yl)-1-phenylbutan-2-ol], the IC50 in data set [1] is greater than 32 µg/mL. Moreover, the MIC in data set [2] is 0.19 µg/mL (≈ 0.335 µM); in data set [3] (setting [9]), 0.05 µg/mL; in data set [4] it was 0.0312 µg/mL. This compound yielded a CC50 in data set [8] greater than 64 µg/mL.

In data set [1], `CC#Cc1cnc(OC)c(C(c2ccccc2)C(O)(CCN(C)C)c2cccc3ccccc23)c1` (stereo not shown) [Compound 263, 4-(dimethylamino)-1-(2-methoxy-5-prop-1-ynyl-3-pyridyl)-2-(1-naphthyl)-1-phenylbutan-2-ol] had an IC50 greater than 32 µg/mL. In addition, the MIC in data set [2] worked out at 2.08 µg/mL (≈ 4.48 µM); in data set [3] (setting [9]), 1.38 µg/mL; in data set [4] it was 0.5 µg/mL. Moreover, the CC50 in data set [8] was greater than 64 µg/mL.

Take `COc1ncc(C2CCCCC2)cc1C(c1ccccc1)C(O)(CCN(C)C)c1cccc2ccccc12` (stereo not shown) [Compound 104, 1-(5-cyclohexyl-2-methoxypyridin-3-yl)-4-(dimethylamino)-2-(naphthalen-1-yl)-1-phenylbutan-2-ol]: the “Vero Cell (IC50)” value in data set [1] is greater than 50 µg/mL. The “M. tuberculosis H37R LORA (MIC)” value in data set [2] was 1.52 µg/mL. Moreover, the “M. tuberculosis H37Rv MABA (MIC)” value in data set [3] (setting [10]) was 1.45 µg/mL. In data set [4], the “M. smegmatis ATCC19420 MIC” value came out at 0.5 µg/mL. In data set [5], this compound returned a CC50_Hela of 19.18 µg/mL (≈ 37.7 µM).

For `COc1ncc(-c2nccs2)cc1C(c1ccccc1)C(O)(CCN(C)C)c1cccc2ccccc12` (stereo not shown) [Compound 169, 4-(dimethylamino)-1-(2-methoxy-5-(thiazol-2-yl)pyridin-3-yl)-2-(naphthalen-1-yl)-1-phenylbutan-2-ol], the IC50 in data set [1] is 25.9 µg/mL (≈ 50.7 µM). The figures for the MIC in data set [2], in data set [3] (setting [9]) and in data set [4] were 4.95 µg/mL (≈ 9.71 µM), 1.73 µg/mL and 0.25 µg/mL, respectively. The compound further had a CC50 in data set [8] of 19.3 µg/mL (≈ 37.8 µM).

For the compound `CCOc1ncc(-c2ccccc2)cc1C(c1ccccc1)C(O)(CCN(C)C)c1cccc2ccccc12` (stereo not shown) [Compound 217, 4-(dimethylamino)-1-(2-ethoxy-5-phenylpyridin-3-yl)-2-(naphthalen-1-yl)-1-phenylbutan-2-ol], in data set [1], the IC50 was greater than 32 µg/mL. The results for the MIC in data set [2], in data set [3] (setting [9]) and in data set [4] were 1.66 µg/mL (≈ 3.21 µM), 0.41 µg/mL and no more than 0.0625 µg/mL, respectively. The compound further yielded a CC50 in data set [8] greater than 64 µg/mL.
